In patent US20250163122A1, “COMPOSITIONS AND METHODS FOR TREATING AIRWAY MUCUS DYSFUNCTION” (BOARD OF REGENTS, THE UNIVERSITY OF TEXAS SYSTEM, priority 2022, published 2025):
Where a SMILES comes first, the peptide text is derived from it. Bridges are numbered along the chain shown (N, C = ends). [ ]: non-standard residue; d: D form. S5 = C=CCCC[C@](C)(N)C(=O)O

Experiments:
[1] = molecular target: airway epithelial SNAREs, Syt2, Munc13-2*, Munc18-2, NSF, and αSNAP (Rattus norvegicus, UniProt P29101); assay: Single vesicle content mixing assay, airway system with complete reconstitution; type: biochemical; conditions: for Ca2+ independent fusion events / Ca2+ triggered fusion events: Munc13-2* + 10 μM SP9, raw count
Experimental: FIGS. 3A-3G show the effect of stapled peptides on fusion with complete airway system reconstitution according to certain aspects of this disclosure. […] PM: vesicles with reconstituted Stx3 and SNAP-23 that mimic the plasma membrane of epithelial cells; SM: vesicles with reconstituted Stx3/Munc18-2 complex; SG: mucin-containing secretory granules. 0.5 μM Munc13-2* fragment was added after formation of the SM vesicles and during all subsequent stages. 10 μM stapled peptide was added together with SG vesicles and was present during all subsequent stages. […] The fusion probabilities and amplitudes were normalized to the number of analyzed SG—airway PM vesicle pairs (see TABLE 4). FIGS. 3C, 3E, 3F, and 3G show means±SEM for multiple independent repeat experiments (see TABLE 2).
For single vesicle content mixing assay, the lipid composition of the SV, SG, VAMP2, or VAMP8 vesicles was phosphatidylcholine (PC) (48%), phosphatidylethanolamine (PE) (20%), phosphatidylserine (PS) (12%), and cholesterol (20%); for both the neuronal and airway PM vesicles the lipid composition was Brain Total Lipid Extract supplemented 3.5 mol % PIP2, and 0.1 mol % biotinylated phosphatidylethanolamine (PE).
The reconstitution method for neuronal PM and SV vesicles was described in detail previously (see Lai et al., 2017; Kyoung et al., 2011; and Lai et al., 2014). The same methods were used for airway PM, SG, VAMP2, and VAMP8 vesicles. Dried lipid films were dissolved in 110 mM OG buffer containing purified proteins at protein-to-lipid ratios of 1:200 for VAMP2 and Stx1A for SV and neuronal PM vesicles, respectively (or 1:200 for VAMP8 and Stx3 for SG and airway PM vesicles, respectively), and 1:800 for Syt1 for SV vesicles (or 1:1200 for Syt2 for SG vesicles).
A 3-5 fold excess of SNAP-25A or SNAP-23 (with respect to Stx1A or Stx3) and 3.5 mol % PIP2 were added to the protein-lipid mixture for neuronal or airway PM vesicles. […] For the preparation of SV, SG, VAMP2, or VAMP8 vesicles for single vesicle content mixing assay, 50 mM sulforhodamine B (Thermo Fisher Scientific) was added to the protein-lipid mixture. The vesicles subsequently formed during size exclusion chromatography using a Sepharose CL-4B column, packed under near constant pressure by gravity with a peristaltic pump (GE Healthcare) in a 5.5 ml column with a ˜5 ml bed volume that was equilibrated with buffer V (20 mM HEPES, pH 7.4, 90 mM NaCl) supplemented with 20 μM EGTA and 0.1% 2-mercaptoethanol. The eluent was subjected to dialysis into 21 of detergent-free buffer V supplemented with 20 μM EGTA, 0.1% 2-mercaptoethanol, 5 g of Bio-beads SM2 (Bio-Rad) and 0.8 g/L Chelex 100 resin (Bio-Rad). After 4 hours, the buffer was exchanged with 21 of fresh buffer V supplemented with 20 μM EGTA, 0.1% 2-mercaptoethanol and Bio-beads, and the dialysis continued for another 12 h (overnight). […] For ensemble lipid mixing assay, the reconstitution method is the same as that for the single vesicle content mixing assay, except that 50 mM sulforhodamine B was omitted for all the steps.
Single vesicle content mixing experiments. All single vesicle fusion and single molecule experiments were performed on a prism-type total internal reflection fluorescence (TIRF) microscope using 532 nm (green) laser (CrystaLaser) excitation. Two observation channels were created by a 640 nm single-edge dichroic beamsplitter (FF640-FDi01-25x36, Shemrock): one channel was used for the fluorescence emission intensity of the content dyes and the other channel for that of the Cy5 dye that are part of the injected Ca^2+-solution. The two channels were recorded on two adjacent rectangular areas (45×90 m^2) of a charge-coupled device (CCD) camera (iXon+DV 897E, Andor Technology). The imaging data were recorded with the smCamera software developed by Taekjip Ha, Johns Hopkins University, Baltimore. […]

Syt2 C2B = Syt2 C2B (Rattus norvegicus, UniProt P29101); assay: Bulk fluorescence anisotropy binding, Syt2 C2B; conditions: Cy3 labeled peptide
Experimental: (§1) Bulk fluorescence anisotropy measurements. In the bulk fluorescence anisotropy experiments, the P0 and SP9 peptides were labeled with the fluorescent dye Cy3 at the C-terminus. Anisotropy was measured with a Tecan Infinite […] fluorimeter using an excitation wavelength of 530±5 nm and emission wavelength of 580±5 nm at 27.2° C. The fluorescent dye labeled samples were diluted to 10 nM concentration in TBS (20 mM Tris, pH 7.5, 150 mM NaCl, 0.5 mM TCEP) for optimal read out.

Syt1 C2B = Syt1 C2B (Rattus norvegicus, UniProt P21707); assay: Bulk fluorescence anisotropy binding, Syt1 C2B; conditions: Cy3 labeled peptide
Experimental: as §1

Chain of airway epithelial SNAREs, Syt2, Munc13-2*, Munc18-2, NSF, and αSNAP (P29101 whole entry, the tested form may be a part): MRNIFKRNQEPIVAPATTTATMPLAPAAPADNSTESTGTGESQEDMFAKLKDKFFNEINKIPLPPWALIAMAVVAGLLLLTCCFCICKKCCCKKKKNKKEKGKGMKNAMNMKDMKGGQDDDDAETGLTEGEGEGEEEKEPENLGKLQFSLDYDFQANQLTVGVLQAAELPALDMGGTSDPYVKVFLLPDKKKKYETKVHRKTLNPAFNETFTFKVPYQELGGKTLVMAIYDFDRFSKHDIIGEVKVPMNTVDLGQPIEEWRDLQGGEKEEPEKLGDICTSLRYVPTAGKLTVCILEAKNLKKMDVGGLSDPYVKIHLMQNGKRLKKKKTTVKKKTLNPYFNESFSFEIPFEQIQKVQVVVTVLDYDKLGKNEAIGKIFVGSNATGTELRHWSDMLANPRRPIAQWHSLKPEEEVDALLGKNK
Chain of Syt2 C2B (P29101 272-422): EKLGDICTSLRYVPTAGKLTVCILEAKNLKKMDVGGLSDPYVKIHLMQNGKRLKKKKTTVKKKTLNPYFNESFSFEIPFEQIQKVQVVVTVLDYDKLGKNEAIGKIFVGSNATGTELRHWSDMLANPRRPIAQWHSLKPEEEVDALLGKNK
Chain of Syt1 C2B (P21707 271-421): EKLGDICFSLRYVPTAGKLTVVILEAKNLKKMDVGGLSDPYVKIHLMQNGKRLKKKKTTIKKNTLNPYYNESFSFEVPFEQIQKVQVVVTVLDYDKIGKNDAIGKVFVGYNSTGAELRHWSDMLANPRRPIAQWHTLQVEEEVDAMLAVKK

Compound | effect on Ca2+-independent fusion probability ([1]; 10 μM peptide) | effect on vesicle association ([1]; 10 μM peptide) | effect on Ca2+-triggered fusion amplitude, cumulative fusion probability and synchronization ([1]; 10 μM peptide, both 50 μM and 500 μM Ca2+) | Ca2+ independent fusion events ([1]; 50 μM Ca2+ experiment) | Ca2+ triggered fusion events ([1]; 50 μM Ca2+) | Ca2+ independent fusion events ([1]; 500 μM Ca2+ experiment) | Ca2+ triggered fusion events ([1]; 500 μM Ca2+) | binding to C2B domain of Syt2 (Syt2 C2B) | binding to C2B domain of Syt1 (Syt1 C2B)
CC[C@H](C)[C@H](NC(=O)[C@]1(C)CCCC=CCCC[C@](C)(NC(=O)[C@H](CCC(=O)O)NC(=O)[C@H](CCC(=O)O)NC(C)=O)C(=O)N[C@@H](CCCCN)C(=O)N[C@@H](CC(=O)O)C(=O)N[C@@H](C)C(=O)N1)C(=O)N[C@@H](CCCNC(=N)N)C(=O)N[C@@]1(C)CCCC=CCCC[C@@](C)(C(=O)N[C@@H](CC(=O)O)C(=O)N[C@@H](CCC(=O)O)C(=O)N[C@@H](CCC(N)=O)C(=O)N[C@@H](CS)C(N)=O)NC(=O)[C@H](CCSC)NC(=O)[C@H](C(C)C)NC(=O)[C@H](CC(C)C)NC1=O [SP9, Ac-EE(S5)KDA(S5)IR(S5)LVM(S5)DEQC-amide] (Ac-EE[S5]KDA[S5]IR[S5]LVM[S5]DEQC-NH2; staple 3-7, 10-14) | only moderately reduced | no effect | strongly inhibited | 23 | 89 | 41 | 106 | – | –
EESKDAGIRTLVMLDEQGEQLD [Peptide P0, non-stapled SNAP-25A fragment used as a control, reference compound] | – | – | – | – | – | – | – | no binding | no binding
